Values after ≈ are worked out from the molar mass of the structure shown.
Tests used:
[1] = target: T1, Carnitine O-palmitoyltransferase 1, muscle isoform (Homo sapiens, UniProt Q92523); assay: SUPPLEMENTARY: Inhibition of Carnitine palmitoyltransferase 1, muscle isoform; parameters: species or system Muscle tissue
T1 sequence (Q92523 whole entry): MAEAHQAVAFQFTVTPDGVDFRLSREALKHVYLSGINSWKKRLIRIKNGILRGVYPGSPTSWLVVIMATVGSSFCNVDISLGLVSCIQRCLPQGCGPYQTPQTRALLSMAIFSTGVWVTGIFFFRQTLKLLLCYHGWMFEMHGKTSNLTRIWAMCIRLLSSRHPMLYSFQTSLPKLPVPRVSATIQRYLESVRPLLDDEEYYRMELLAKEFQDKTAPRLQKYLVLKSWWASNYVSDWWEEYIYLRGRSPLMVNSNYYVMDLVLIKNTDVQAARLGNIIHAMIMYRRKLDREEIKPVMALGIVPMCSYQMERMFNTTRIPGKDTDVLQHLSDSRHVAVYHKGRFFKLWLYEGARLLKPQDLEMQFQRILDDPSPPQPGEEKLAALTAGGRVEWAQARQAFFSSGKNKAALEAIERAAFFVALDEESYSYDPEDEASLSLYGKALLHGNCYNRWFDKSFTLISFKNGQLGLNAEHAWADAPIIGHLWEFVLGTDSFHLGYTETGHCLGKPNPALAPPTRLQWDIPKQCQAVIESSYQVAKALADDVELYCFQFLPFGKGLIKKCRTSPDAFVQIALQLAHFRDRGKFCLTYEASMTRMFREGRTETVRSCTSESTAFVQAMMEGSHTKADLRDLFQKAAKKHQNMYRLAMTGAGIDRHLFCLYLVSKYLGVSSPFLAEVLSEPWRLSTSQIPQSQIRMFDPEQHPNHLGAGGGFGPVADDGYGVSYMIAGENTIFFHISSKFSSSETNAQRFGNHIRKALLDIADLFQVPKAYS

[2] = target: T2, Carnitine O-palmitoyltransferase 2, mitochondrial (Homo sapiens, UniProt P23786); assay: (§1) SUPPLEMENTARY: Inhibition of Carnitine palmitoyltransferase 2
T2 sequence (P23786 whole entry): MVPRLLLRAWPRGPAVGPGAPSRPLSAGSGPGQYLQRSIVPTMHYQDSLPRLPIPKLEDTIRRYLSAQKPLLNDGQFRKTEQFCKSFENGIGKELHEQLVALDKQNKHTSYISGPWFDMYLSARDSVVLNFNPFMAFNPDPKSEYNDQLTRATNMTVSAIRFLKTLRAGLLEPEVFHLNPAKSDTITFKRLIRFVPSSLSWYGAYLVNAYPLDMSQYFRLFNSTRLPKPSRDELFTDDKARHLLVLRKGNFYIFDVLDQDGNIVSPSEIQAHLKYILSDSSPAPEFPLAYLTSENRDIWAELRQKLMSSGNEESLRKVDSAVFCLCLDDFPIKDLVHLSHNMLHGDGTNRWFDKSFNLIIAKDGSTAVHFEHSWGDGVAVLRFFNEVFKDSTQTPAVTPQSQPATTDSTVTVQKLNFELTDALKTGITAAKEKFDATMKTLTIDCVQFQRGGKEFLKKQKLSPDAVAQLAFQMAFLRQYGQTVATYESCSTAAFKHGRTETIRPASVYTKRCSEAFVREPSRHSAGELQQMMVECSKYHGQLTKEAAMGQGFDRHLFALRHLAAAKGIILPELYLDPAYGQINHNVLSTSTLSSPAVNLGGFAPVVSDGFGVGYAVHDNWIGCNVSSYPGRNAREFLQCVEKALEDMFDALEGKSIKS

[3] = target: T3, Carnitine O-palmitoyltransferase 2, mitochondrial (Rattus norvegicus, UniProt P18886); assay: as §1
T3 sequence (P18886 whole entry): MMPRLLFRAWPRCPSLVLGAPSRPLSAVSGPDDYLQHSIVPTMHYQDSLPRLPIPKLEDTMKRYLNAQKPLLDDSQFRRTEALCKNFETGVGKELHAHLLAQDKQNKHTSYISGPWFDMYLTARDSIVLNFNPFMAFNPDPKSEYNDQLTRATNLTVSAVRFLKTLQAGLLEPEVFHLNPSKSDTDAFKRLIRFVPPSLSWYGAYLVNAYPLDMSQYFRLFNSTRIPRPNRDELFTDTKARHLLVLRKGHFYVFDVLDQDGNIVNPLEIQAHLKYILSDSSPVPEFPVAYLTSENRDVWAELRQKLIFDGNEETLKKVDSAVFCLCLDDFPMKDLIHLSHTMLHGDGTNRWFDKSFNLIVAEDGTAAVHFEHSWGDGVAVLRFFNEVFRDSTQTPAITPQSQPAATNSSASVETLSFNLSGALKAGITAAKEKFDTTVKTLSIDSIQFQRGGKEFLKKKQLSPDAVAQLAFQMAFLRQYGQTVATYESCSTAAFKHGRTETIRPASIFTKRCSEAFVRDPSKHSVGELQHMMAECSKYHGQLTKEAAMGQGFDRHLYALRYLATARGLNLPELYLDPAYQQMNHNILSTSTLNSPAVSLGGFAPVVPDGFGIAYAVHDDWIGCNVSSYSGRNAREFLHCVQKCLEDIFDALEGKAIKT

[4] = target: T4, Carnitine O-palmitoyltransferase 1, liver isoform (Homo sapiens, UniProt P50416); assay: (§2) SUPPLEMENTARY: Inhibition of Carnitine palmitoyltransferase 1, liver isoform
T4 sequence (P50416 whole entry): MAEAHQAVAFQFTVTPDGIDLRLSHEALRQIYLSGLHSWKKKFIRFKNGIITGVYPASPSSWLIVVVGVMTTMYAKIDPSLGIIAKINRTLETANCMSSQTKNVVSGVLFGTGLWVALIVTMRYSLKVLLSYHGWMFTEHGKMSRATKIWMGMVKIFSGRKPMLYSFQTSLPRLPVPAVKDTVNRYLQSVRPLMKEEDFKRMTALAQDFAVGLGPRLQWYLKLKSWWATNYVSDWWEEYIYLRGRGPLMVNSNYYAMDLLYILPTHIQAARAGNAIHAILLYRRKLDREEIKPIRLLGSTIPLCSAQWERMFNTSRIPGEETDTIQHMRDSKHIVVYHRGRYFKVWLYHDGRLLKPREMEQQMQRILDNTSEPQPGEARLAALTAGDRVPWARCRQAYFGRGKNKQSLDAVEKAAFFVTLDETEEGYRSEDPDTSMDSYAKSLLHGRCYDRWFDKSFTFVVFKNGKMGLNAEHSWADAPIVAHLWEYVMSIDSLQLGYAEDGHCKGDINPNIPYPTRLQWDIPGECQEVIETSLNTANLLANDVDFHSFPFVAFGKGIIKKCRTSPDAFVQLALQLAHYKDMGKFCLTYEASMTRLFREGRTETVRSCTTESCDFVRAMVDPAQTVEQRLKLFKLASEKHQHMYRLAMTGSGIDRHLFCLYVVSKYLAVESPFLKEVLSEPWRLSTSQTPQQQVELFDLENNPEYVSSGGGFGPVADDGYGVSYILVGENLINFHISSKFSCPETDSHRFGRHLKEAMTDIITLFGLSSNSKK

[5] = target: T5, Carnitine O-palmitoyltransferase 1, liver isoform (Rattus norvegicus, UniProt P32198); assay: as §2
T5 sequence (P32198 whole entry): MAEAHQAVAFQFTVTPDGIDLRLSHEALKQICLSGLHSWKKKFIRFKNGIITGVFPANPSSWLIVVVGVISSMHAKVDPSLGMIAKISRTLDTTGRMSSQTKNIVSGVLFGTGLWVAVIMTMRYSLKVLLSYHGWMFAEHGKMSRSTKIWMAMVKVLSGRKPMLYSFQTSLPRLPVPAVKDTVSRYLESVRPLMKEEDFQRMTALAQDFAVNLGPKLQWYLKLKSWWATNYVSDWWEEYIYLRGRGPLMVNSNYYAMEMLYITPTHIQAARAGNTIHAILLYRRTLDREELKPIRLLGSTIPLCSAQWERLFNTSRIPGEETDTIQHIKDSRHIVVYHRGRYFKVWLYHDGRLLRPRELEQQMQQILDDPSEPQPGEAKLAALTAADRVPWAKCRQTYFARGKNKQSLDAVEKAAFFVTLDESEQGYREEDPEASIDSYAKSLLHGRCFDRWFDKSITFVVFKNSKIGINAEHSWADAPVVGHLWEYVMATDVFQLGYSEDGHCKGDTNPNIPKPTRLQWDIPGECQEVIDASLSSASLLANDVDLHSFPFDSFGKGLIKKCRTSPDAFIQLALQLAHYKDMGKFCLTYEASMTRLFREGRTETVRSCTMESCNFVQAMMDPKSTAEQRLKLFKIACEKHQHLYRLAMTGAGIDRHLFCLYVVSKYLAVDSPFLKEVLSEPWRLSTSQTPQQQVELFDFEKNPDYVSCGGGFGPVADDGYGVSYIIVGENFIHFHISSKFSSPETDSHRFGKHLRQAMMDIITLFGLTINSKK

[6] = SUPPLEMENTARY: Lyophilisation Solubility Assay (LYSA); format: physicochemical; conditions: read-out: Kinetic_solubility
[7] = SUPPLEMENTARY: PAMPA permeability assay; format: physicochemical; conditions: read-out: Permeability

SMILES	IC50 [1] [µM]	IC50 [2] [µM]	IC50 [3] [µM]	IC50 [4] [µM]	IC50 [5] [µM]	solubility kinetic [6] [µg/mL]	Papp [7] [×10⁻⁶ cm/s]
Nc1cc(-c2noc([C@H]3CCCCN3C(=O)COc3ccccc3)n2)ccn1	> 100	19.5	35.2	0.108	0.25	106 (≈ 279 µM)	5.3
O=C(Nc1ccc(C(=O)O)c(F)c1)c1ccc2c(c1)N(S(=O)(=O)c1cccc(Cl)c1)CCO2	6.92	18.6	> 100	0.207	0.0723	4 (≈ 8.15 µM)	2.21
COc1ccc(Cl)cc1S(=O)(=O)N1COc2c(F)cc(C(=O)Nc3nc(CC(=O)O)cs3)cc21	0.553	> 100	> 100	0.0312	0.0523	309 (≈ 585 µM)	2.24
Cn1cc(Sc2cccc(Cl)c2)c2cc(C(=O)Nc3ccc(C(=O)O)cc3)ccc21	1.13	5.07	7.4	0.0434	0.0214	7 (≈ 16 µM)	0.13
Cc1cc(C(=O)Nc2ccc(-c3nnn[nH]3)cc2)nn1Cc1ccc(OC(F)F)cc1	6.17	72.6	81.6	0.192	0.932	31 (≈ 72.9 µM)	1.23
COc1ccc(Cl)cc1S(=O)(=O)N1COc2c(F)cc(C(=O)Nc3ccc(C(=O)O)cc3)cc21	17.6	15.1	> 100	0.0425	0.0634	15 (≈ 29.6 µM)	2.2
COc1ccc(Cl)cc1S(=O)(=O)c1nn(CCC(=O)O)c2ccc(C(=O)Nc3ccccc3)cc12	49.4	> 100	> 100	0.0147	0.0066	25 (≈ 48.6 µM)	0.67
COc1ccc(Cl)cc1Cn1ccc2ccc(C(=O)Nc3nc(CC(=O)O)cs3)cc21	24.2	> 100	> 100	0.17	0.0905	13 (≈ 28.5 µM)	1.14
COc1ccc(Cl)cc1S(=O)(=O)N1CCOc2ccc(C(=O)Nc3ccc(C(=O)O)cc3)cc21	14.8	26.7	36.6	0.0401	0.0354	8 (≈ 15.9 µM)	2.7

The remaining lines, values ahead:

IC50 [1] [µM]	IC50 [2] [µM]	IC50 [3] [µM]	IC50 [4] [µM]	IC50 [5] [µM]	solubility kinetic [6] [µg/mL]	Papp [7] [×10⁻⁶ cm/s]	SMILES
> 100	> 100	> 100	0.05	0.0648	8 (≈ 16 µM)	1.89	COc1ccc(Cl)cc1S(=O)(=O)c1nn(C)c2ccc(C(=O)Nc3ccc(C(=O)O)cc3)cc12
11	1.27	19.6	0.123	0.148	13 (≈ 27.3 µM)	1.24	COc1ccc(Cl)cc1CN1C(=O)C2(CC2)c2ccc(C(=O)Nc3ccc(C(=O)O)cc3)cc21
0.614	> 100	> 100	0.155	0.132	38 (≈ 72.9 µM)	2.84	COc1ccc(Cl)cc1S(=O)(=O)N1COc2c(F)cc(C(=O)Nc3ccc(CC(=O)O)cc3)cc21
> 100	> 100	> 100	0.111	1	138 (≈ 308 µM)	3.2	O=C(NC1CC1)c1cncc(-c2noc([C@H]3CCCCN3C(=O)COc3ccccc3)n2)c1
> 100	2.32	5.23	0.0771	0.156	103 (≈ 180 µM)	2.65	COc1ccc(Cl)cc1S(=O)(=O)N1CCOc2c1cc(C(=O)Nc1ccc(C(=O)O)cc1)cc2C(F)(F)F
2.65	1.07	2.67	0.0294	0.0119	< 1	1.23	COc1ccc(C)cc1S(=O)(=O)n1ccc2ccc(C(=O)Nc3ccc(C(=O)O)cc3)cc21
8.83	> 100	> 100	0.0337	0.0217	71 (≈ 153 µM)	0.01	Cc1cc(C)cc(S(=O)(=O)c2nn(CC(=O)O)c3ccc(C(=O)Nc4ccccc4)cc23)c1
